Measured values as given in PMC7162861, “Synthesis, cytotoxicity, pharmacokinetic profile, binding with DNA and BSA of new imidazo[1,2-a]pyrazine-benzo[d]imidazol-5-yl hybrids” (Scientific Reports, 2020).

What was measured:
[1] = Experimental log P, shake-flask method; assay type: physicochemical; conditions: n-octanol/phosphate buffer pH 7.4, read-out: Exp. Log P
Description: Partition coefficients or experimental log P values of all synthesized compounds (9–23, 30 and 31) were calculated using the shake-flask method. Log P values were determined using n-octanol and phosphate buffer (pH = 7.4) at 10:1 ratio of volumes. Stock solutions (10^−3 M) of compounds were prepared in DMSO. Glass vials were used to make final solutions i.e. stock solution (250 µL) and phosphate buffer (125 µL). To record the absorbance, wavelength was selected based on λmax of the respective compound. Initial absorbance (Ai) for every compound was noted consuming the stock solution in the buffer phase. Now added n-octanol to every vial and shaken well using a mechanical shaker for 50 minutes. To get separation of both phases, glass vials were centrifuged for 35 min. at 2500 rpm. Then, the layer of octanol was separated from glass vial. The final absorbance (Af) of each compound was recorded by using the buffer layer. The values of P for compounds were determined by the following equation (Eq. 8):8 P=Ai−Af/Af×Vw/Vo

EtBr-CT-DNA complex = test system: EtBr-CT-DNA complex; design: method as in printed; conditions: used in Eq. 4; ref not given; cited from earlier work

Row | Structure (SMILES) | melting point [°C] | logP [1] | known binding constant KEtBr (EtBr-CT-DNA complex) [M⁻¹]
1 | Clc1ccc(-c2cn3ccnc3c(-c3ccc4c(c3)ncn4C3CCCCC3)n2)cc1 [Compound 18, 6-(4-chlorophenyl)-8-(1-cyclohexyl-1H-benzo[d]imidazol-5-yl)imidazo[1,2-a]pyrazine] | 193 to 196 | 1.34 | –
2 | Brc1ccc(-c2cn3ccnc3c(-c3ccc4c(c3)ncn4C3CCCCC3)n2)cc1 [Compound 19, 6-(4-bromophenyl)-8-(1-cyclohexyl-1H-benzo[d]imidazol-5-yl)imidazo[1,2-a]pyrazine] | 195 to 198 | 2.05 | –
3 | CC[n+]1c(-c2ccccc2)c2cc(N)ccc2c2ccc(N)cc21 [ethidium bromide] | – | – | 1e+07

Further lines, with some results ahead:

Row | melting point [°C] | logP [1] | Structure (SMILES) | known binding constant KEtBr (EtBr-CT-DNA complex) [M⁻¹]
4 | 195 to 198 | 1.88 | COc1ccccc1-c1cn2ccnc2c(-c2ccc3c(c2)ncn3C2CCCCC2)n1 [Compound 20, 8-(1-cyclohexyl-1H-benzo[d]imidazol-5-yl)-6-(2-methoxyphenyl)imidazo[1,2-a]pyrazine] | –
5 | 190 to 193 | 1.77 | Fc1ccccc1-c1cn2ccnc2c(-c2ccc3c(c2)ncn3C2CCCCC2)n1 [Compound 21, 8-(1-cyclohexyl-1H-benzo[d]imidazol-5-yl)-6-(2-fluorophenyl)imidazo[1,2-a]pyrazine] | –
6 | 196 to 199 | 1.67 | FC(F)(F)c1cccc(-c2cn3ccnc3c(-c3ccc4c(c3)ncn4C3CCCCC3)n2)c1 [Compound 23, 8-(1-cyclohexyl-1H-benzo[d]imidazol-5-yl)-6-(3-(trifluoromethyl)phenyl)imidazo[1,2-a]pyrazine] | –
